Measurements: patent publication US20250154220A1, “INSULIN ANALOGS FOR THE TREATMENT OF HUMAN METABOLIC DISORDER AND DISEASE” (Ambio, Inc., priority 2023, published 2025)
“Also recorded” adds a separate entry of the source.

How the values were obtained:
ICR mice [1] = assay: Biopotency in ICR mice against insulin reference standard, chapter <1211> of Chinese Pharmacopeia (blood glucose 40 min after injection); type: in vivo; conditions: low and high dosing solutions 0.05 and 0.1 IU/mL, blood 40 minutes after administration, FIG. 7
Procedure: The biopotency of the eight insulin analogs was determined by comparison with the insulin reference standard following chapter <1211> of Chinese Pharmacopeia. In particular, the insulin analogs and insulin reference standard were prepared with either diluent 1 or diluent 2. Diluent 1 comprises 0.9% sodium chloride at a pH of 2.5 (adjusted with HCl) and 0.2% phenol. Diluent 2 comprises 0.9% sodium chloride at a pH of 2.5 (adjusted with HCl). The insulin reference standard (27.2 IU/mg) and the insulin analogs (calculated as 25 IU/mg) were prepared with diluent 1. In addition, low- and high-dosing solutions (0.05 IU/mL and 0.1 IU/mL, respectively) of insulin reference standard and test analogs were prepared with diluent 2. Following chapter <1211> of Chinese Pharmacopeia, ICR mice (25-28 g, 6 animals per group) were injected with 0.2-0.3 mL of low and high dosing solution of the eight insulin analogs and insulin standard. Low and high doses of insulin standard and insulin analogs were administered to the mice following parallel design/protocol. […] The glucose concentration of each blood sample was determined by the glucose oxidase-peroxidase method (Roche blood glucose test strips). […] FIG. 6 summarizes the relative biopotency of the insulin analogs by comparing the calculated biopotency and measured biopotency.

Sprague-Dawley (SD) rats [2] = assay: c-peptide levels in non-fasted Sprague-Dawley rats after subcutaneous injection; type: in vivo; conditions: 175 nmol-200 nmol s.c.; for duration of c-peptide level compared to rats injected with Degludec: over 120 hours
Procedure: (§1) Male Sprague-Dawley (SD) rats at the age of 8-10 weeks old were administered a dose of 175 nmol-200 nmol insulin analogs 1, 2, 3, 4, APi3545, APi3546, APi3547, and APi3549 through subcutaneous injection. Insulin Degludec was used as a positive control. A vehicle control consisted of glycerol (19.6 mg), metacresol (1.72 mg), phenol (1.50 mg), zinc acetate ([…]), and WFI to 1 mL.

Sprague-Dawley (SD) rats [3] = assay: Glucose levels in non-fasted Sprague-Dawley rats after subcutaneous injection; type: in vivo; conditions: for duration of decrease in glucose levels compared to rats injected with Degludec: over 120 hours; for glucose area under the curve (AUC) values: FIG. 9 (0-96 hour) and FIG. 15 (0-72 hour)
Procedure: as §1

[4] = Body weight of non-fasted Sprague-Dawley rats after subcutaneous injection; type: in vivo; conditions: SD rats, over 120 hours, FIG. 13 and FIG. 16
Procedure: as §1

[5] = Body weight of db/db mice measured daily for 3 days after single subcutaneous dose; type: in vivo; conditions: Day 1-3, 1.5 IU/mg Degludec, all dose levels of Analog #1, FIGS. 3A-3B
Procedure: Accordingly, the ability of insulin analog 1 (FIG. 1A) to control the glucose profile in a db/db type II diabetes model was tested. As a control, wild type m/m mouse strain was included in the study. Mice were male, between ages 6-8 weeks, and the total group size was 8. The insulin analogs were delivered as a subcutaneous single dose. The dose volume was 5 mL/Kg ([…] per 25 g mouse). Mice were injected at the following dose levels: Degludec 1.5 IU/kg (model) and insulin analog #1 (FIG. 1A) at 0.04 mg/kg, 0.12 mg/kg, or 0.36 mg/kg. All insulin compounds (Degludec and analog #1) were diluted with 0.9% sodium chloride (vehicle, normal saline). Vehicle controls were comprised of 0.9% sodium chloride.
(§2) Blood collection for glucose plasma concentration measurements occurred at Oh (0-60 min before dosing), 0.5 h, 1 h, 2 h, 4 h, 6 h, 8 h, 10 h, 12 h, 18 h, 24 h, 30 h after the single dose. Moreover, the mouse body weight was measured daily for 3 days.

IGF-1R = biological target: T1, IGF-1R (Homo sapiens, UniProt P08069); assay: IGF-1R activation in IGF-1R (Luc) HEK293 reporter cells; type: cell-based; conditions: up to 4 μg/mL (1.6 μM) concentration
T1 construct: expressed in transfected cells; host or cells: IGF-1R (Luc) HEK293 reporter cells
Source text: Insulin-like growth factor (IGF-1R) is a tyrosine kinase type receptor that regulates cell growth and proliferation and can be activated by IGF-1, IGF-2, and insulin. […]

db/db mice = assay: Glucose profile after single subcutaneous dose in db/db type II diabetes mouse model; type: in vivo
Source text: Murine db/db murine strain is a well-accepted type II diabetes model that recapitulates most aspects of human type II diabetes. In particular, db/db mice carry mutations in the leptin receptor that lead to obesity, decreased insulin receptor sensitivity, and subsequent increased levels of blood glucose, decreased β-cell function, and elevated HBA1c levels. Like human Type II diabetes, the diabetic condition in db/db mice is progressive. Animals have near normal or slightly elevated plasma glucose (PG) and relatively normal β-cell function at 6 weeks of age. Fasting plasma glucose (FPG) levels gradually elevate over several weeks and β-cell function declines such that by about 16 weeks of age FPG is very high (>400 mg/dL) and j-cell function has entirely degenerated. The db/db mouse model may be used in an acute setting but is more typically used in a chronic setting to evaluate a test compound's cumulative action over several weeks of treatment. The variability is reasonably low such that good statistically significant effects are seen with validating compounds with group sizes of about 8 animals.
Accordingly, the ability of insulin analog 1 (FIG. 1A) to control the glucose profile in a db/db type II diabetes model was tested. As a control, wild type m/m mouse strain was included in the study. Mice were male, between ages 6-8 weeks, and the total group size was 8. The insulin analogs were delivered as a subcutaneous single dose. The dose volume was 5 mL/Kg (125 L per 25 g mouse). […] All insulin compounds (Degludec and analog #1) were diluted with 0.9% sodium chloride (vehicle, normal saline). Vehicle controls were comprised of 0.9% sodium chloride.
as §2

ICR mice [6] = conditions: reference standard as labelled; cited from earlier work
[7] = SD rats, 175 nmol-200 nmol s.c.

T1 sequence (P08069 31-736 limits assumed): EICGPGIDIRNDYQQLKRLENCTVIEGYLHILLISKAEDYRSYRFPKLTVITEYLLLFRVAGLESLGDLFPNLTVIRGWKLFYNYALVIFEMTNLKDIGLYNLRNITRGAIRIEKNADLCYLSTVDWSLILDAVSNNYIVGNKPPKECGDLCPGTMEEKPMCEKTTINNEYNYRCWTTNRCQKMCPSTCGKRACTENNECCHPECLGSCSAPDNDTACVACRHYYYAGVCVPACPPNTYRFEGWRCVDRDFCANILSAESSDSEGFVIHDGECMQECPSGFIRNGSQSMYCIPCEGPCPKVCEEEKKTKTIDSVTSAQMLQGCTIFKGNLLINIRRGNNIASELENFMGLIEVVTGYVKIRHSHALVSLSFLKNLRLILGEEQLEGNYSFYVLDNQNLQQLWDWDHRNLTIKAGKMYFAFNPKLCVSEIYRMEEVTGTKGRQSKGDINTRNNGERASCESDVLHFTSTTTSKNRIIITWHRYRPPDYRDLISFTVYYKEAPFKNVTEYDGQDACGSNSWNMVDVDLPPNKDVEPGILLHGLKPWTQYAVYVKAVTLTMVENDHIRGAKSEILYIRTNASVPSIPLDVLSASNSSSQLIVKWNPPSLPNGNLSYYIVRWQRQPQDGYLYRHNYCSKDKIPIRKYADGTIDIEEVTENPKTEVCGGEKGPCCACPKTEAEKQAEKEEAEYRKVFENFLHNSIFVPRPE
T1 sequence (P08069 741-1367 limits assumed): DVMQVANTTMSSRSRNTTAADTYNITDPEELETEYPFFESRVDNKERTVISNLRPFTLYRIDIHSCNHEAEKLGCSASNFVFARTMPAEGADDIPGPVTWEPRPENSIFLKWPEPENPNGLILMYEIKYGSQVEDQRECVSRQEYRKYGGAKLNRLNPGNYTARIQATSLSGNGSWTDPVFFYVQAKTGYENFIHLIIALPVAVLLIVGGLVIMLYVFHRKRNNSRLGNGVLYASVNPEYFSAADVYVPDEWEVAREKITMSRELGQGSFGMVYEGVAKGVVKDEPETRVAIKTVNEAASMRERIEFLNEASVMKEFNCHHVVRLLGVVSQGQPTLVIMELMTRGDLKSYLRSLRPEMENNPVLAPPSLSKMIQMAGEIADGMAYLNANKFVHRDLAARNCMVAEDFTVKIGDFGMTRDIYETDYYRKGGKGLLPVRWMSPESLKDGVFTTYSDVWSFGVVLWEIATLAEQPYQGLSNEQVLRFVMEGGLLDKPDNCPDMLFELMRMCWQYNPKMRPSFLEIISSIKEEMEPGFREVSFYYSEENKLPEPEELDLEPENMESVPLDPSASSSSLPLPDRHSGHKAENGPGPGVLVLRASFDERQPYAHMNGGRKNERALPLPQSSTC

| Substance | duration of c-peptide level compared to rats injected with Degludec (Sprague-Dawley (SD) rats [2]) | duration of decrease in glucose levels compared to rats injected with Degludec (Sprague-Dawley (SD) rats [3]; [7]) | rate of body weight increase compared to rats injected with Degludec [4] | glucose area under the curve (AUC) values (Sprague-Dawley (SD) rats [3]; SD rats) | further results |
| --- | --- | --- | --- | --- | --- |
| APi3545: A-chain SEQ ID NO: 11 (A14 Aad), B-chain SEQ ID NO: 16 (B16 His(5-I), B25 Ala(4-thiazoyl)); structure FIG. 1H | maintained the level of c-peptide for a longer time | longer lasting decrease in glucose levels | – | – | glucose lowering effect / biopotency measured in ICR mice (ICR mice [1]): most active; time undetectable c-peptide level was maintained (Sprague-Dawley (SD) rats [2]): up to 72 hours; duration of action among insulin analogs tested (Sprague-Dawley (SD) rats [3]; structure-activity relationship (Example 5)): most long-acting insulin analog tested |
| APi3546: A-chain SEQ ID NO: 11 (A14 Aad), B-chain SEQ ID NO: 18 (B16 His(5-I), B25 3-Pal); structure FIG. 1I | maintained the level of c-peptide for a longer time | longer lasting decrease in glucose levels | lower rate of body weight increase | – | – |
| Degludec [reference compound] | – | – | – | – | effect on animal body weight [5]: no significant effect |
| insulin analog 1: A-chain SEQ ID NO: 3 (A14 Gla), B-chain SEQ ID NO: 4 (B16 and B25 His(3-Me)); structure FIG. 1A | maintained the level of c-peptide for a longer time | longer lasting decrease in glucose levels | lower rate of body weight increase | – | IGF-1R activation (IGF-1R; FIG. 19, listed as 1): none of insulin analogs 1, 2, 3, and 4 showed IGF-1R activation; also recorded: lack of IGF-1R activation; glucose profile compared to db/db vehicle control (db/db mice; 0.12 mg/kg, s.c. single dose, 2, 4, 6 and 8 hr time points, FIG. 2): statistically significantly lower; response (glucose level decrease) versus dose (db/db mice; 0.36 mg/kg, 0.12 mg/kg and 0.04 mg/kg doses): dose proportional; glucose profile compared to db/db vehicle control (db/db mice; 0.36 mg/kg, entire time course starting from 2 hr time point): statistically lower; glucose profile compared to db/db vehicle control (db/db mice; 0.36 mg/kg, s.c. single dose, 2, 4, 6 and 8 hr time points, FIG. 2): statistically significantly lower; effect on animal body weight [5]: no significant effect |
| insulin analog 2: A-chain SEQ ID NO: 3 (A14 Gla), B-chain SEQ ID NO: 6 (B16 and B25 Pal, B28 Pro); structure FIG. 1B | maintained the level of c-peptide for a longer time | – | lower rate of body weight increase | follow the order of their specific activities | IGF-1R activation (IGF-1R; FIG. 19, listed as 2): none of insulin analogs 1, 2, 3, and 4 showed IGF-1R activation; also recorded: lack of IGF-1R activation; glucose lowering effect / biopotency measured in ICR mice (ICR mice [1]): most active; c-peptide lowering effect among analogs tested (Sprague-Dawley (SD) rats [2]): most profound and longest-lasting c-peptide lowering effect; duration of decrease in glucose levels compared to rats injected with Degludec (Sprague-Dawley (SD) rats [3]; SD rats, 175 nmol-200 nmol s.c., listed as 2): longer lasting decrease in glucose level |
| insulin analog 3: A-chain SEQ ID NO: 3 (A14 Gla), B-chain SEQ ID NO: 8 (B16 and B25 Pal, B28 Hyp); structure FIG. 1C | maintained the level of c-peptide for a longer time | longer lasting decrease in glucose levels | – | follow the order of their specific activities | IGF-1R activation (IGF-1R; FIG. 19, listed as 3): none of insulin analogs 1, 2, 3, and 4 showed IGF-1R activation; also recorded: lack of IGF-1R activation; magnitude of glucose lowering effect among analogs tested (Sprague-Dawley (SD) rats [3]; [7]): most profound glucose lowering effect |
| insulin analog 4: A-chain SEQ ID NO: 3 (A14 Gla), B-chain SEQ ID NO: 10 (B16 and B25 Pal, B28 Pip); structure FIG. 1D | maintained the level of c-peptide for a longer time | longer lasting decrease in glucose levels | lower rate of body weight increase | follow the order of their specific activities | IGF-1R activation (IGF-1R; FIG. 19, listed as 4): none of insulin analogs 1, 2, 3, and 4 showed IGF-1R activation; also recorded: lack of IGF-1R activation |
| insulin reference standard: insulin reference standard (27.2 IU/mg) of chapter <1211> of Chinese Pharmacopeia biopotency test | – | – | – | – | potency of insulin reference standard (ICR mice [6]): 27.2 IU/mg |
